Assay results: ChEMBL document CHEMBL4507268 (2021)
Calls of active or inactive are those of the source. The rule behind the calls is not given here.

Experiments:
[1] = target: Activated CDC42 kinase 1 (Homo sapiens) (UniProt Q07912); settings: Compound concentration 1000.0 nM
[2] = target: Solute carrier family 2, facilitated glucose transporter member 1 (Homo sapiens, UniProt P11166); test: Cellular mechanistic assay: Inhibition of glucose uptake by Hela-MaTu cells
[3] = test system: Hepatocyte growth factor receptor (Homo sapiens), P08581 [M1250T]; settings: Compound concentration 1000.0 nM
[4] = target: Dual specificity mitogen-activated protein kinase kinase 4 (Homo sapiens) (UniProt P45985); settings: Compound concentration 1000.0 nM
[5] = target: T1, Activin receptor type-1B (Homo sapiens) (UniProt P36896); settings: Compound concentration 1000.0 nM
T1 sequence (whole entry): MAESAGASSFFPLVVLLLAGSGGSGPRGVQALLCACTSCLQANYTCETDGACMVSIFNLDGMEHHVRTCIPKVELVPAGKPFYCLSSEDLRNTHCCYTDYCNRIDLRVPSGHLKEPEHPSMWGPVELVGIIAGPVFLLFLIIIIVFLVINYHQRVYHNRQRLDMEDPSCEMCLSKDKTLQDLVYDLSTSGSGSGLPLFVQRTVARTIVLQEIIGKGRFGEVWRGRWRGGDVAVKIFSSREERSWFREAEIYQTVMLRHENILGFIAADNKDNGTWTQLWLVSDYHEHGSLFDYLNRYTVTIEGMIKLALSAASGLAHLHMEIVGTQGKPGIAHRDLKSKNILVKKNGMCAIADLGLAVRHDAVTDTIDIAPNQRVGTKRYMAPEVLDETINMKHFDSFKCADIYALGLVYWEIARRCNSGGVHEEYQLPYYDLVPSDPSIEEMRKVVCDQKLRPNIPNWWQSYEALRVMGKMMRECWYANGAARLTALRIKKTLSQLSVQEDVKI

[6] = target: Cyclin-dependent kinase 4 (Homo sapiens) (UniProt P11802); settings: Compound concentration 1000.0 nM
[7] = target: Mitogen-activated protein kinase kinase kinase 14 (Homo sapiens) (UniProt Q99558); settings: Compound concentration 1000.0 nM
[8] = target: Serine/threonine-protein kinase N1 (Homo sapiens) (UniProt Q16512); settings: Compound concentration 1000.0 nM
[9] = target: Dual specificity mitogen-activated protein kinase kinase 1 (Homo sapiens) (UniProt Q02750); settings: Compound concentration 1000.0 nM
[10] = target: Fibroblast growth factor receptor 1 (Homo sapiens) (UniProt P11362); settings: Compound concentration 1000.0 nM
[11] = test system: Epidermal growth factor receptor (Homo sapiens), P00533 [L861Q]; settings: Compound concentration 1000.0 nM
[12] = target: Tyrosine-protein kinase SYK (Homo sapiens) (UniProt P43405); settings: Compound concentration 1000.0 nM
[13] = target: T2, MAP kinase-activated protein kinase 5 (Homo sapiens) (UniProt Q8IW41); settings: Compound concentration 1000.0 nM
T2 sequence (whole entry): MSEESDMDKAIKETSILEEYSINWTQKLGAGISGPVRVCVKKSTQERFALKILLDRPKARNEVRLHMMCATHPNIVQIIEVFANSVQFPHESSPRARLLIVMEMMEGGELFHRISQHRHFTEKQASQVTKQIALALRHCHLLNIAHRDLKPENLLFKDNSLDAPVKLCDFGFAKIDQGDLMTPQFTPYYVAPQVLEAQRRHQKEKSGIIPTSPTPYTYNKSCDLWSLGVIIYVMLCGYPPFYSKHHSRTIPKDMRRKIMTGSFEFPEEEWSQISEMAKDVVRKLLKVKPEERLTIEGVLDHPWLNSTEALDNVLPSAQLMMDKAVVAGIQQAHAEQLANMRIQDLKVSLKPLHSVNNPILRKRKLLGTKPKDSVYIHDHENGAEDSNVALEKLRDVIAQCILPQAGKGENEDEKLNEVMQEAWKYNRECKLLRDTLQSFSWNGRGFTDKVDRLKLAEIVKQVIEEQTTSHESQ

[14] = target: 5-hydroxytryptamine receptor 1E (Homo sapiens) (UniProt P28566); settings: Compound concentration 10.0 uM
[15] = target: T3, Protein kinase C epsilon type (Homo sapiens) (UniProt Q02156); settings: Compound concentration 1000.0 nM
T3 sequence (whole entry): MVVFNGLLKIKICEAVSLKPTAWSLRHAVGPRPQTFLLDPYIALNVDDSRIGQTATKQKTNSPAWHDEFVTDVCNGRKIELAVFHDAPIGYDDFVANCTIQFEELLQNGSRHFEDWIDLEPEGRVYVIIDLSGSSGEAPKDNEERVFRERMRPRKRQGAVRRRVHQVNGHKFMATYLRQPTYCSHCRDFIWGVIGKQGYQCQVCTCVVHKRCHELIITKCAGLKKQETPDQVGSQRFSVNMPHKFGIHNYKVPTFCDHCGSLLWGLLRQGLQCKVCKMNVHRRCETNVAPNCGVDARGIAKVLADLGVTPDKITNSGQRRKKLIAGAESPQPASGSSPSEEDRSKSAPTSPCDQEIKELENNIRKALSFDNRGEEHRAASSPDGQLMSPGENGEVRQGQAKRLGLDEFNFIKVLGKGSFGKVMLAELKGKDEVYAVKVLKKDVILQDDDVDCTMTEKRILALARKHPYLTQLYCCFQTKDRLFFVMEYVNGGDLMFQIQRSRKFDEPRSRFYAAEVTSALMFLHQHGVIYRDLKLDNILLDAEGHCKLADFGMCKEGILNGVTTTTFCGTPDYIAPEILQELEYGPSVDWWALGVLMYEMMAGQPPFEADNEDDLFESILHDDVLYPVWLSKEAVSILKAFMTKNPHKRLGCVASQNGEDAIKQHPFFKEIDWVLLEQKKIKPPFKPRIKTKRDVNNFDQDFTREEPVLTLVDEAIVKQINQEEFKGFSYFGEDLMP

[16] = target: Casein kinase I isoform gamma-1 (Homo sapiens) (UniProt Q9HCP0); settings: Compound concentration 1000.0 nM
Sequence of Casein kinase I isoform gamma-1 (Homo sapiens) (Q9HCP0 whole entry, looked up, canonical isoform): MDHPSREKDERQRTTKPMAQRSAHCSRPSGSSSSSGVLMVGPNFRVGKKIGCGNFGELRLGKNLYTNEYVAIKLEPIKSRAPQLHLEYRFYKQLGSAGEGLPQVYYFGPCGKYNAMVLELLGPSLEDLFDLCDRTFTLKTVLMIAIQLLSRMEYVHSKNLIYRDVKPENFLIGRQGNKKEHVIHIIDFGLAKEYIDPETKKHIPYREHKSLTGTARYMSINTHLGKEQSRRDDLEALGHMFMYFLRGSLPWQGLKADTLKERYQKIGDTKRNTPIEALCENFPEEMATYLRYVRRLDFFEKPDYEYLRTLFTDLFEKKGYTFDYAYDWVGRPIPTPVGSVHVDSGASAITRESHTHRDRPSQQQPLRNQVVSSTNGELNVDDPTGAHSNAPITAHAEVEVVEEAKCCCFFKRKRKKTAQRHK

Sequence of Mitogen-activated protein kinase kinase kinase 14 (Homo sapiens) (Q99558 whole entry, looked up): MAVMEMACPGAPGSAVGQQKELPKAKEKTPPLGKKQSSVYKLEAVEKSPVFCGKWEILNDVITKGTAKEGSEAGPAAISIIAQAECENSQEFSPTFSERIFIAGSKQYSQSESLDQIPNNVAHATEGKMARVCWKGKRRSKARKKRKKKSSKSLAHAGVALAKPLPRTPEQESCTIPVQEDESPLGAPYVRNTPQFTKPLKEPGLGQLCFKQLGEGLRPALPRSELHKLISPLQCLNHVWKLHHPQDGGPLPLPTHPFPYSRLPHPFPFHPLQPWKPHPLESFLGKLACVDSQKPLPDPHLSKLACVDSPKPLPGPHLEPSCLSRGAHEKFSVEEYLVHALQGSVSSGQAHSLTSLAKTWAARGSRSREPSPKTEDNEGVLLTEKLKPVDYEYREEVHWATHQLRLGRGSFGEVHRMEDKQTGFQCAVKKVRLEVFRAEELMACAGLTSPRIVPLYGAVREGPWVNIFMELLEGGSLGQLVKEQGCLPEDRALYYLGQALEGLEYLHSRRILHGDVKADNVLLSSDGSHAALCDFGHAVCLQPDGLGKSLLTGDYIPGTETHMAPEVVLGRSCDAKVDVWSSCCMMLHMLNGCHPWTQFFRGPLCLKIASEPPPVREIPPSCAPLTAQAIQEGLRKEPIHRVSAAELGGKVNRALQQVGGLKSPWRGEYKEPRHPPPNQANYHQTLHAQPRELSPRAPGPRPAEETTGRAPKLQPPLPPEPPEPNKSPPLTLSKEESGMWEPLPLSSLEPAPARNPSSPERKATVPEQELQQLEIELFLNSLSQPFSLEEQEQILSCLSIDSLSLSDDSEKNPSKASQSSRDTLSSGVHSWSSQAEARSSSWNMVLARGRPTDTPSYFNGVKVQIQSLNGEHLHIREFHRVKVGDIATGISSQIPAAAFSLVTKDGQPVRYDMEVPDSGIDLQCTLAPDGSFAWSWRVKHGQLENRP
Sequence of Dual specificity mitogen-activated protein kinase kinase 1 (Homo sapiens) (Q02750 whole entry): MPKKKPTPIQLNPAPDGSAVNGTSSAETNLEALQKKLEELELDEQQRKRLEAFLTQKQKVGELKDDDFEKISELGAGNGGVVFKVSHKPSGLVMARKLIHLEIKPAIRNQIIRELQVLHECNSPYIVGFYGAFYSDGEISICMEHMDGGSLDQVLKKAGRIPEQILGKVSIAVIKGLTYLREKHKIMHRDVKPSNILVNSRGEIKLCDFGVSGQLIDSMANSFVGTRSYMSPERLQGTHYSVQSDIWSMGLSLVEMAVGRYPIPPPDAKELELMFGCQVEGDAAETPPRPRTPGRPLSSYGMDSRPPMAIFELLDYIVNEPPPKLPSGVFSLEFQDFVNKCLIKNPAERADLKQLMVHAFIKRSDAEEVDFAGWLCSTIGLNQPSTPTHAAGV
Sequence of Activated CDC42 kinase 1 (Homo sapiens) (Q07912 whole entry, looked up): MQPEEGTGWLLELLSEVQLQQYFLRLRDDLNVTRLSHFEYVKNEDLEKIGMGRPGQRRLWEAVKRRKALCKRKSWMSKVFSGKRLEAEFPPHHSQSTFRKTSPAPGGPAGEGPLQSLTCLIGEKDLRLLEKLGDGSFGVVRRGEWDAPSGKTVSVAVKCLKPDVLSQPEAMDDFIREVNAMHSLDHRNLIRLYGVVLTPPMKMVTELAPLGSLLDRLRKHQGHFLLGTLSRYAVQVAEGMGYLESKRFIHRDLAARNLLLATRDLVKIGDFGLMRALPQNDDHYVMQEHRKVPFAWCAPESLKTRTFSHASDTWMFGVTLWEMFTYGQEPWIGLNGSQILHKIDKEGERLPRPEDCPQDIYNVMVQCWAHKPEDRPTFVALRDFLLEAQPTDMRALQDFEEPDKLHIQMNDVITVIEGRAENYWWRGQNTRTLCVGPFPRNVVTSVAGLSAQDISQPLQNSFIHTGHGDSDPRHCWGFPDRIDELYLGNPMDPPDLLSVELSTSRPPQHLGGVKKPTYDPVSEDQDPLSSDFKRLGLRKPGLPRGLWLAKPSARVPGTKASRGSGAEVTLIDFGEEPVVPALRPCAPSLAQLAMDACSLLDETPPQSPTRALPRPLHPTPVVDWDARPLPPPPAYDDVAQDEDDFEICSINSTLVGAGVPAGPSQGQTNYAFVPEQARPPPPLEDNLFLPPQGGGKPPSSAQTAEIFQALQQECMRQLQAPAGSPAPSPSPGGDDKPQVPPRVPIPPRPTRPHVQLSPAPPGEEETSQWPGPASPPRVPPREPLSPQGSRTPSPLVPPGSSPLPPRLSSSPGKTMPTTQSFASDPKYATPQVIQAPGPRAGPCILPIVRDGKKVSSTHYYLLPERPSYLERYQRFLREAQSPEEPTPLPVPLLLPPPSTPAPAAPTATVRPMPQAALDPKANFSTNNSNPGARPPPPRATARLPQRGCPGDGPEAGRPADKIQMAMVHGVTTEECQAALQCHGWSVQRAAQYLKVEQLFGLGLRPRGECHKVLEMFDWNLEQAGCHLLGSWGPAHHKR
Sequence of Cyclin-dependent kinase 4 (Homo sapiens) (P11802 whole entry): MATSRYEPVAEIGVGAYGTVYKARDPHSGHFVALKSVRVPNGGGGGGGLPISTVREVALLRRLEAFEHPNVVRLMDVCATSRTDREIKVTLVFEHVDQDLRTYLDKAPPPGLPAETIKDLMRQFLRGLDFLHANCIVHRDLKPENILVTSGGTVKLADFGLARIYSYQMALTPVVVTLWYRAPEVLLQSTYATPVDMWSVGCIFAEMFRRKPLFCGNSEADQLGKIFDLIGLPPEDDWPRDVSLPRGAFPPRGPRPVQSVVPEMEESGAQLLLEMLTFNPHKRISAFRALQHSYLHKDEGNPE
Sequence of Dual specificity mitogen-activated protein kinase kinase 4 (Homo sapiens) (P45985 whole entry): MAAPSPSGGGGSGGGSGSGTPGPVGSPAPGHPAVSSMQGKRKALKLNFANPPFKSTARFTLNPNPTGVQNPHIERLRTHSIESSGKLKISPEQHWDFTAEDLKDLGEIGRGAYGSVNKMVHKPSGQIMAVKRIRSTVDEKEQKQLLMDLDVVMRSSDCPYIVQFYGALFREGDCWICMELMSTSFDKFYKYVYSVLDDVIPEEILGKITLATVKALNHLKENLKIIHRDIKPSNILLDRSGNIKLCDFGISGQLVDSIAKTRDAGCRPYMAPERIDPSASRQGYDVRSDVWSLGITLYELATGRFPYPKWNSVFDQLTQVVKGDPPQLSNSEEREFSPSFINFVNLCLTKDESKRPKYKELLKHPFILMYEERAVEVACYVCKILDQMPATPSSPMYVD
Sequence of Solute carrier family 2, facilitated glucose transporter member 1 (P11166 whole entry): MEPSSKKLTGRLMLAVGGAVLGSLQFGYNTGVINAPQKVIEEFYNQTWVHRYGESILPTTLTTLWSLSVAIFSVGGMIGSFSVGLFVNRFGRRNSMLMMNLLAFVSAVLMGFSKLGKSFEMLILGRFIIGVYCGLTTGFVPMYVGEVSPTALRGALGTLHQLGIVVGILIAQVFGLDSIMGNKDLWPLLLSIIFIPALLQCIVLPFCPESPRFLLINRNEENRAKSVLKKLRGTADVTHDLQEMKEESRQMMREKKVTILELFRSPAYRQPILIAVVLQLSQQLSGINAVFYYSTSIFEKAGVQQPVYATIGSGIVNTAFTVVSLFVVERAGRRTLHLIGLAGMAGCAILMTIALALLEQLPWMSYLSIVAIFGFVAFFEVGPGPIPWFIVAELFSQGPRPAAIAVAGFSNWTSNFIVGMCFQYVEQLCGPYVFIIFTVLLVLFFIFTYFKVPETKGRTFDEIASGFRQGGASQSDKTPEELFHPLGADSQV
Sequence of Fibroblast growth factor receptor 1 (Homo sapiens) (P11362 22-822 limits assumed): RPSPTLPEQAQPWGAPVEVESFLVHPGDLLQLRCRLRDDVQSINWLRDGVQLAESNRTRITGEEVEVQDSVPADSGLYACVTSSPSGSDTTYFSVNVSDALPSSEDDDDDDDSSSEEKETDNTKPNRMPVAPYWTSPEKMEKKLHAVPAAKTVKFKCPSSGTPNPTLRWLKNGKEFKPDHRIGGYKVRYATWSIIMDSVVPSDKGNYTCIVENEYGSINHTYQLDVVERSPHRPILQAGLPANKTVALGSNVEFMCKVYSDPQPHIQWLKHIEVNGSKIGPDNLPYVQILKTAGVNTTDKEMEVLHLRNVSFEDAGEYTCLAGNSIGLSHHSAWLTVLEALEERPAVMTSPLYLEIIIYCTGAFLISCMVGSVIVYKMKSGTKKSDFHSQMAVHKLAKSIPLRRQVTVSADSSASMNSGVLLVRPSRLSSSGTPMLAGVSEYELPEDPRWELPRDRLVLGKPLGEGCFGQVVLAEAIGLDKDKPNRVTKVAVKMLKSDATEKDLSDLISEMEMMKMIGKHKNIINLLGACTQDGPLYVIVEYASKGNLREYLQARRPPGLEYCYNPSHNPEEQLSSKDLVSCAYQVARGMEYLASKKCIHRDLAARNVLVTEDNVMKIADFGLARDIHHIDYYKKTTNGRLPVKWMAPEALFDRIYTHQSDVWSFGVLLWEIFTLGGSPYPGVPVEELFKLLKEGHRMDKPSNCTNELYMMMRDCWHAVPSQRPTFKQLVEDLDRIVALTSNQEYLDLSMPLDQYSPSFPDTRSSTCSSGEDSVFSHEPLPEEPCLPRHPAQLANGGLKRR

SMILES | residual activity [1] | IC50 [2] | residual activity [3] | residual activity [4] | residual activity [5] | residual activity [6] | residual activity [7] | residual activity [8] | residual activity [9] | residual activity [10] | residual activity [11] | residual activity [12] | residual activity [13] | inhibition [14] | residual activity [15] | residual activity [16]
CN1CCN(c2cnc3c(C4CCN(C(=O)c5ccc(OC(F)(F)F)cc5N)CC4)ncnc3c2)CC1 [BAY-885] | 100% | 0.035 µM (active) | 100% | 100% | 79% | 100% | 100% | 100% | 95% | 100% | 100% | 100% | 100% | 14.2% | 100% | 100%
Cc1nc(C2CCN(C(=O)c3ccc(OC(F)(F)F)cc3N)CC2)c2ncc(N3CCN(C)CC3)cc2n1 [BAY-693] | 100% | 6.4 µM (not active) | 97% | 100% | 86% | 100% | 100% | 100% | 85% | 100% | 100% | 98% | 94% | -9.94% | 100% | 100%
